Source: ChEMBL document CHEMBL4342426, “Structure-activity relationship of 4-azaindole-2-piperidine derivatives as agents against Trypanosoma cruzi” (Bioorg Med Chem Lett, 2020)
Converted amounts (≈) assume the structure as drawn.

Key:
in vitro [1] = settings: human, MRC5 SV2 cells
Description: (§1) Cytotoxicity against human MRC5 SV2 cells assessed as reduction in cell viability incubated for 3 days by fluorimetry

Trypanosoma cruzi = assay: microbe, parasite or virus in culture; settings: Tulahuen CL2, MRC-5 SV2, 168 h
Description: Antitrypanosomal activity against Trypanosoma cruzi Tulahuen CL2 amastigotes infected in human MRC5 SV2 cells incubated for 7 days by chlorophenol red beta-D-galactopyranoside substrate based spectrophotometric assay

physchem [2] = settings: PBS buffer, pH 7.4
Description: Kinetic solubility of compound in PBS buffer at pH 7.4

Leishmania infantum = assay: microbe, parasite or virus in culture; settings: for IC50: MHOM/MA(BE)/67/ITMAP263, 120 h; for IC90: MHOM/MA(BE)/67/ITMAP263, in Mus musculus, 120 h
Description: Antileishmanial activity against amastigote stage of Leishmania infantum MHOM/MA(BE)/67/ITMAP263 infected in mouse peritoneal macrophage assessed as parasite growth inhibition incubated for 5 days by Giemsa staining based assay

in vitro [3] = settings: dog, MDCK
Description: Apparent permeability across basolateral to apical side in MDCK cells

in vitro [4] = settings: mouse, peritoneal macrophages
Description: (§2) Cytotoxicity against mouse peritoneal Macrophage cells assessed as reduction in cell viability incubated for 3 days by fluorimetry

Macrophage = assay: cells; settings: Mus musculus, 72 h
Description: as §2

in vitro [5] = settings: mouse, liver microsomes
Description: Metabolic stability in mouse liver microsomes assessed as intrinsic clearance at 0.5 uM incubated for 30 mins by LC-MS/MS analysis

cells = settings: Homo sapiens, MRC-5 SV2, 72 h
Description: as §1

in vitro [6] = settings: dog, MDCK; remark: listed apart in the source
physchem [7] = settings: PBS buffer, pH 2
Description: Kinetic solubility of compound in PBS buffer at pH 2

[8] = system: Trypanosoma brucei rhodesiense; assay: microbe, parasite or virus in culture; settings: STIB900, 72 h
Description: Antiprotozoal activity against Trypanosoma brucei rhodesiense STIB900 trypomastigotes incubated for 72 hrs by resazurin dye based fluorimetric analysis

Trypanosoma brucei = assay: microbe, parasite or virus in culture; settings: Squib 427, 72 h
Description: Antitrypanosomal activity against Trypanosoma brucei Squib 427 assessed as reduction in parasite growth incubated for 72 hrs by resazurin dye based fluorimetric analysis

in vitro [9] = settings: human, MRC5 SV2 cells; remark: listed apart in the source
Description: Selectivity index, ratio of IC50 for human MRC5 SV2 cells to IC50 for Trypanosoma cruzi Tulahuen CL2 amastigotes infected in human MRC5 SV2 cells

in vitro [10] = settings: human, liver microsomes
Description: Metabolic stability in human liver microsomes assessed as intrinsic clearance at 0.5 uM incubated for 30 mins by LC-MS/MS analysis

in vitro [11] = settings: PAMPA
Description: Effective permeability of compound by PAMPA assay

in vitro [12] = settings: mouse, peritoneal macrophages; remark: listed apart in the source
Description: Selectivity index, ratio of IC50 for mouse peritoneal macrophage to IC50 for Leishmania infantum MHOM/MA(BE)/67/ITMAP263 infected in mouse peritoneal macrophage

in vitro [13] = settings: human, MRC5 SV2 cells; remark: listed apart in the source
Description: Selectivity index, ratio of IC50 for human MRC5 SV2 cells to IC50 for Trypanosoma brucei rhodesiense STIB900 trypomastigotes

physchem [14] = settings: buffer, pH 7.4
Description: Lipophilicity, logD of compound at pH 7.4 by HPLC analysis

in vitro [15] = settings: human, MRC5 SV2 cells; remark: listed apart in the source
Description: Selectivity index, ratio of IC50 for human MRC5 SV2 cells to IC50 for Trypanosoma brucei Squib 427

in vitro [16] = settings: mouse, liver microsomes; remark: listed apart in the source
Description: Metabolic stability in mouse liver microsomes assessed as fraction unbound at 0.5 uM incubated for 30 mins by LC-MS/MS analysis

Row | Structure (SMILES) | IC90 at 72 h (in vitro [1]) | IC50 (Trypanosoma cruzi) | IC90 (Trypanosoma cruzi) | IC50 (Leishmania infantum) | IC90 (Leishmania infantum) | IC90 at 72 h (in vitro [4]) | IC50 (Macrophage) | CLint scaled at 0.5 h, 0.5 µM (in vitro [5]) | microsomal CLint at 0.5 h, 0.5 µM (in vitro [5]) | IC50 (cells) | IC50 [8] | IC90 [8] | IC50 (Trypanosoma brucei) | IC90 (Trypanosoma brucei) | selectivity ratio (in vitro [9]) | CLint scaled at 0.5 h, 0.5 µM (in vitro [10]) | microsomal CLint at 0.5 h, 0.5 µM (in vitro [10]) | Papp (in vitro [11]) | selectivity ratio (in vitro [13]) | logD (physchem [14]) | other results
1 | CC(C)c1cc(C(=O)N2CCCC(c3cc4ncccc4[nH]3)C2)on1 (stereo not drawn) | 64 µM | 2.9 to 3.88 µM | 7.61 to 24.3 µM | 32 to 64 µM | 32 to 64 µM | 32 to 64 µM | 32 to 64 µM | 1600 mL/min/kg | 560 µL/min/mg | 64 µM | 32 to 38.1 µM | 32 to 58.7 µM | 32 to 55.6 µM | 32 to 64 µM | 8.25 to 22.1 | 67.8 mL/min/kg | 37 µL/min/mg |  |  |  | solubility kinetic (physchem [2]): 60.4 µg/mL (≈ 178 µM); Papp B→A (in vitro [3]): 33.2 ×10⁻⁶ cm/s; Papp A→B (in vitro [6]): 29.4 ×10⁻⁶ cm/s; solubility kinetic (physchem [7]): > 67.3 µg/mL
2 | CC(C)c1cc(C(=O)N2CC=C(c3cc4ncccc4[nH]3)CC2)on1 | 64 µM | 2.01 to 2.12 µM | 3.79 to 15.4 µM | 27.9 to 41.6 µM |  | 64 µM | 64 µM | 2650 mL/min/kg | 398 to 446 µL/min/mg | 64 µM | 7.97 to 15.5 µM | 36.4 to 49.5 µM | 36.7 to 38.7 µM | 58.8 to 63.5 µM | 30.1 to 31.8 | 119 mL/min/kg | 23 to 59.2 µL/min/mg | 1.54 ×10⁻⁶ cm/s | 4.14 to 8.02 | 3.23 | selectivity ratio (in vitro [12]): 2.32; solubility kinetic (physchem [2]): 10.4 µg/mL (≈ 31 µM); Papp B→A (in vitro [3]): 15.3 ×10⁻⁶ cm/s; selectivity ratio (in vitro [15]): 1.74; Papp A→B (in vitro [6]): 14.6 ×10⁻⁶ cm/s; solubility kinetic (physchem [7]): > 67.3 µg/mL
3 | O=C(c1ccc(F)cc1)N1CCCC(c2cc3ncc(Cl)cc3[nH]2)C1 (stereo not drawn) | 64 µM | 28.8 µM | 59.5 µM | 18.5 µM | 50.4 µM | 64 µM | 64 µM | 970 mL/min/kg | 235 µL/min/mg | 34.9 µM | 5.82 µM | 13.9 µM | 16.3 µM | 32.4 µM | 1.2 | 62.2 mL/min/kg | 44.6 µL/min/mg | 10.6 ×10⁻⁶ cm/s | 5.94 | 3.82 | selectivity ratio (in vitro [12]): 1.9; selectivity ratio (in vitro [15]): 2.16; fraction unbound at 0.5 h, 0.5 µM (in vitro [16]): 0.775
4 | O=C(c1ccccc1)N1CCCC(c2cn3nc(Cl)ccc3n2)C1 (stereo not drawn) | 64 µM | 64 µM | 64 µM | 64 µM | 64 µM | 64 µM | 64 µM | > 772 mL/min/kg | 242 µL/min/mg | 64 µM | 7.81 µM | 14.5 µM | 47.7 µM | 64 µM |  | > 61.7 mL/min/kg | 56.9 µL/min/mg | 23.6 ×10⁻⁶ cm/s | 8.19 | 3.18 | selectivity ratio (in vitro [15]): 1.37
5 | CN(C(=O)c1ccccc1)c1cccc(-c2cc3ncccc3[nH]2)c1 | 60.9 µM | 7.25 µM | 64 µM | 37.4 µM | 60.5 µM | 59.7 µM | 45.3 µM | 5840 mL/min/kg | 1200 µL/min/mg | 26.1 µM | 9.02 µM | 35.5 µM | 31.9 µM | 59.1 µM | 3.59 | 83.7 mL/min/kg | 50.6 µL/min/mg | 2.78 ×10⁻⁶ cm/s | 2.89 | 3.3 | selectivity ratio (in vitro [12]): 0.707; selectivity ratio (in vitro [15]): 0.849; fraction unbound at 0.5 h, 0.5 µM (in vitro [16]): 0.653
6 | O=C(c1cc(C(F)(F)F)no1)N1CCCC(c2cc3nc(NCc4ccccc4)ccc3[nH]2)C1 (stereo not drawn) | 13.6 µM | 2.14 µM | 64 µM | 6.34 µM | 23.6 µM | 29.9 µM | 22.6 µM |  |  | 6.91 µM | 4.97 µM | 13 µM | 7.87 µM | 14.8 µM | 3.23 | 1870 mL/min/kg | 149 µL/min/mg | 0.239 ×10⁻⁶ cm/s | 1.4 | 4.4 | selectivity ratio (in vitro [12]): 1.07; selectivity ratio (in vitro [15]): 0.894; fraction unbound at 0.5 h, 0.5 µM (in vitro [16]): 0.0857
